Measured values as given in PMC9365315 (ACS chemical neuroscience, 2022).

Experiments:
[1] = test system: EAE mice; experiment: Mechanical withdrawal thresholds; assay type: in vivo, mouse (C57BL/6, female); settings: day 24 post-EAE induction; compound 5 and modafinil 10 mg/kg, Solu-Medrol 50 mg/kg p.o. days 1–10
[2] = test system: RAW 264.7 mouse macrophages induced with LPS; experiment: Cytokine mRNA expression in LPS-induced RAW 264.7 macrophages; assay type: cell-based; settings: 10 and 1 μM, 48 h, preliminary data

In the case of NC(=O)C[S+]([O-])C(c1ccccc1)c1ccccc1 (racemic) [(±)-modafinil], the “Mechanical withdrawal threshold, front left paw (von Frey)” value [1] is reported as “decreased reflex thresholds” and the “mRNA expression levels of TNF-α, IL-1β and IL-4Rα” value [2] is reported as “minimal ability to modulate”.
